Measurements: article PMC9365315 (ACS chemical neuroscience, 2022)

How the values were obtained:
[1] = test system: EAE mice; assay: Mechanical withdrawal thresholds; assay type: in vivo, mouse (C57BL/6, female); settings: day 24 post-EAE induction; compound 5 and modafinil 10 mg/kg, Solu-Medrol 50 mg/kg p.o. days 1–10
[2] = test system: RAW 264.7 mouse macrophages induced with LPS; assay: Cytokine mRNA expression in LPS-induced RAW 264.7 macrophages; assay type: cell-based; settings: 10 and 1 μM, 48 h, preliminary data

NC(=O)C[S+]([O-])C(c1ccccc1)c1ccccc1 (racemic) [(±)-modafinil]
Mechanical withdrawal threshold, front left paw (von Frey) [1]: decreased reflex thresholds
mRNA expression levels of TNF-α, IL-1β and IL-4Rα [2]: minimal ability to modulate
